This note sets out measurements from PubChem BioAssay (NCI).

The structures appear in SMILES notation.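 Method: 48-hour compound exposure of cells in 96-well plates, five concentrations, linear interpolation of endpoints. At the TGI there is no net growth.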 Some results are limits rather than exact numbers.

Among the test systems are MDA-N; EKVX NSCLC; U251 CNS; SNB-75 CNS; SK-MEL-28 melanoma; NCI-H226 lung; PC-3 prostate; NCI-H23 lung; HT29 colon; OVCAR-8 ovarian; RXF 393 renal; NCI/ADR-RES ovarian; NCI-H522 lung; HL-60(TB) leukemia; TK-10 renal; K-562 leukemia; OVCAR-5 ovarian; HCC-2998 colon; ACHN renal; CAKI-1 renal.
Holding throughout (test): NCI-60 cell line screen, 48 h

As for `CCc1cn(C2CC(CO)C(CO)S2)c(=O)[nH]c1=O` (centres undefined), the TGI in the test with MDA-N, in the test with EKVX NSCLC, with U251 CNS, in the test on SNB-75 CNS, with SK-MEL-28 melanoma and in the test on NCI-H226 lung was more than 100 µM each time. Further, the TGI with PC-3 prostate, in the test on NCI-H23 lung, with HT29 colon, in the test on OVCAR-8 ovarian, in the test with RXF 393 renal and in the test with NCI/ADR-RES ovarian was more than 100 µM in each case. Further, the TGI in the test with NCI-H522 lung, with HL-60(TB) leukemia, in the test with TK-10 renal, with K-562 leukemia, in the test with OVCAR-5 ovarian and with HCC-2998 colon was more than 100 µM throughout. For the same compound, the TGI in the test on ACHN renal and with CAKI-1 renal was more than 100 µM each time.
Regarding `CCN1C(c2ccccc2)=CC(c2ccccc2)(C(Cl)(Cl)Cl)C=C1c1ccccc1`, the TGI with MDA-N was more than 100 µM; in the test with EKVX NSCLC it was 83 µM; in the test on U251 CNS, more than 100 µM; in the test with SNB-75 CNS, more than 100 µM; in the test on SK-MEL-28 melanoma, 67 µM; with NCI-H226 lung, more than 100 µM. Further, the TGI with PC-3 prostate was more than 100 µM; with NCI-H23 lung, 93.4 µM; in the test on HT29 colon, 21.8 µM; in the test with OVCAR-8 ovarian, more than 100 µM; in the test with RXF 393 renal, 72.2 µM; in the test with NCI/ADR-RES ovarian, more than 100 µM. The TGI is more than 100 µM in the test with NCI-H522 lung; 2.73 µM in the test on HL-60(TB) leukemia; more than 100 µM in the test on TK-10 renal; more than 100 µM in the test on K-562 leukemia; 79 µM with OVCAR-5 ovarian; 24.9 µM in the test on HCC-2998 colon. Moreover, the TGI in the test on ACHN renal and in the test with CAKI-1 renal was more than 100 µM throughout.
In the case of `COc1cc(C)cc2c1C(=O)C(NC(C)=O)=CC2=O`, the TGI in the test with MDA-N is 32.8 µM; in the test on EKVX NSCLC, more than 100 µM; in the test on U251 CNS it was more than 100 µM; with SNB-75 CNS it was more than 100 µM; in the test with SK-MEL-28 melanoma, more than 100 µM; in the test on NCI-H226 lung, more than 100 µM. Also, the TGI in the test with PC-3 prostate, with NCI-H23 lung, in the test with HT29 colon, in the test with OVCAR-8 ovarian, with RXF 393 renal and with NCI/ADR-RES ovarian was more than 100 µM throughout. For the same compound, the TGI in the test on NCI-H522 lung was more than 100 µM; in the test with HL-60(TB) leukemia, 53.2 µM; with TK-10 renal, more than 100 µM; in the test on K-562 leukemia, more than 100 µM; in the test with OVCAR-5 ovarian it was more than 100 µM; in the test on HCC-2998 colon it was more than 100 µM. Further, the TGI with ACHN renal and with CAKI-1 renal was more than 100 µM in each case.
On to `COc1ccc(-n2c(C)nc3ccc(NC4OC(COC(C)=O)C(OC(C)=O)C(OC(C)=O)C4OC(C)=O)cc3c2=O)cc1` (centres undefined), for which the TGI in the test with MDA-N, with EKVX NSCLC, with U251 CNS, with SNB-75 CNS, with SK-MEL-28 melanoma and in the test with NCI-H226 lung was more than 100 µM throughout. Moreover, the TGI was more than 100 µM in the test on PC-3 prostate; more than 100 µM in the test on NCI-H23 lung; more than 100 µM in the test with HT29 colon; more than 100 µM in the test on OVCAR-8 ovarian; 87.4 µM in the test with RXF 393 renal; more than 100 µM with NCI/ADR-RES ovarian. For the same compound, the TGI was 47.5 µM in the test with NCI-H522 lung; 48.7 µM with HL-60(TB) leukemia; more than 100 µM in the test with TK-10 renal; 79 µM in the test with K-562 leukemia; more than 100 µM in the test on OVCAR-5 ovarian; more than 100 µM in the test with HCC-2998 colon. Besides, the TGI was more than 100 µM with ACHN renal and 57.3 µM with CAKI-1 renal.
As to `Cc1cc(NS(=O)(=O)c2ccc(NC(=O)c3ccc4nc5ccccc5c(Nc5ccc(S(N)(=O)=O)cc5)c4c3)cc2)no1`, the TGI in the test on MDA-N was 66 µM; in the test on EKVX NSCLC, 63 µM; in the test on U251 CNS it was 64.7 µM; in the test on SNB-75 CNS, 94.7 µM; in the test on SK-MEL-28 melanoma it was 50.7 µM; in the test on NCI-H226 lung it was more than 100 µM. For the same compound, the TGI was more than 100 µM with PC-3 prostate; 95.2 µM with NCI-H23 lung; 72.2 µM with HT29 colon; 66 µM in the test on OVCAR-8 ovarian; 58.4 µM with RXF 393 renal; more than 100 µM in the test with NCI/ADR-RES ovarian. Moreover, the TGI in the test on NCI-H522 lung was 37.7 µM; in the test with HL-60(TB) leukemia, 56.2 µM; with TK-10 renal, 82.9 µM; in the test on K-562 leukemia it was 44.6 µM; in the test with OVCAR-5 ovarian, 65.8 µM; in the test with HCC-2998 colon it was more than 100 µM. The TGI in the test with ACHN renal was 45.6 µM; in the test with CAKI-1 renal, more than 100 µM.
As for `c1ccc(CSCCC(SCc2ccccc2)SCc2ccccc2)cc1`, the TGI in the test with MDA-N, with EKVX NSCLC, with U251 CNS, in the test on SNB-75 CNS, in the test on SK-MEL-28 melanoma and in the test with NCI-H226 lung was more than 10 µM in each case. Further, the TGI with PC-3 prostate, with NCI-H23 lung, in the test on HT29 colon, in the test on OVCAR-8 ovarian, in the test on RXF 393 renal and with NCI/ADR-RES ovarian was more than 10 µM each time. For the same compound, the TGI with NCI-H522 lung, with HL-60(TB) leukemia, in the test on TK-10 renal, with K-562 leukemia, in the test on HCC-2998 colon and with ACHN renal was more than 10 µM throughout. The same compound yielded a TGI in the test with CAKI-1 renal of more than 10 µM.
Regarding `CC(C)(C)C1CC[C@H](O)[C@H]([C@@H](O)CC2CC(=O)N(c3ccccc3)C(=O)C2)C1` (some centres undefined), the TGI in the test with MDA-N, in the test with EKVX NSCLC, in the test with U251 CNS, in the test with SNB-75 CNS, with SK-MEL-28 melanoma and in the test on NCI-H226 lung was more than 100 µM each time. Further, the TGI in the test with PC-3 prostate, in the test on NCI-H23 lung, in the test on HT29 colon, in the test on OVCAR-8 ovarian, in the test with RXF 393 renal and with NCI/ADR-RES ovarian was more than 100 µM throughout. The TGI is more than 100 µM in the test with NCI-H522 lung; 77.5 µM in the test on HL-60(TB) leukemia; more than 100 µM in the test with TK-10 renal; more than 100 µM with K-562 leukemia; more than 100 µM in the test on OVCAR-5 ovarian; more than 100 µM in the test on HCC-2998 colon. The TGI in the test with ACHN renal and with CAKI-1 renal was more than 100 µM in each case.
